Results: patent US11485740B2, “Inhibitors of TRPC6” (Boehringer Ingelheim International GmbH, priority 2018, dated 2022)

Each compound was assayed against T1, human TRPC6 (Homo sapiens, UniProt Q9Y210) (assay: High throughput screening assay: Fluo4/AM calcium fluorescence in HEK293/TREx cells expressing human TRPC6, agonist GSK1702934A (single concentration 10 μM and IC50 curves)). Conditions: antagonist effect against human TRPC6, 7 concentrations 20 μM to 0.027 μM, triplicate.
T1 construct: expressed in transfected cells
T1 sequence (Q9Y210 1-931): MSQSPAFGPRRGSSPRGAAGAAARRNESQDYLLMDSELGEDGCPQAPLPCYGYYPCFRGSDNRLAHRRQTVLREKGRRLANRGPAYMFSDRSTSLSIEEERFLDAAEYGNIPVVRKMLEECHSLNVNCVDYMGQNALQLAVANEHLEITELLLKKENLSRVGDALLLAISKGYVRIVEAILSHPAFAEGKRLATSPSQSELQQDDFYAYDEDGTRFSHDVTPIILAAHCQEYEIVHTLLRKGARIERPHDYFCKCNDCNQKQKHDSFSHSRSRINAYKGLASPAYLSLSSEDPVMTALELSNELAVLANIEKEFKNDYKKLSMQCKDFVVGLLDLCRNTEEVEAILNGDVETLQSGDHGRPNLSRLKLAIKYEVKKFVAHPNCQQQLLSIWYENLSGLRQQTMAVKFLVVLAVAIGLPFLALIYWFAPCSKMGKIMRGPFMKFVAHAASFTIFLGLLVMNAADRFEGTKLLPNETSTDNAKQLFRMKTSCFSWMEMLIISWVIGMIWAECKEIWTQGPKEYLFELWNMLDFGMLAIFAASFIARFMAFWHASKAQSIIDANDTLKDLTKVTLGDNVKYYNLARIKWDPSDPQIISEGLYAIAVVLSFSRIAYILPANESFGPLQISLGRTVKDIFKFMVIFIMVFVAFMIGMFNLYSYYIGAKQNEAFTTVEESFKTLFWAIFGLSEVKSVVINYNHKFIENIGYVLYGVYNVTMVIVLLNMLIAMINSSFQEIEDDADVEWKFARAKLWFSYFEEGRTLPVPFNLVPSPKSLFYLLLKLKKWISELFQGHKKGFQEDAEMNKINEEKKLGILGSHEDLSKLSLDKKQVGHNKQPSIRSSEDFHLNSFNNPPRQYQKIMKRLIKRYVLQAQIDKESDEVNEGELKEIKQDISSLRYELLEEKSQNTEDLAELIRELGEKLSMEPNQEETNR
Assay type: cell-based
Excerpt: High Throughput Screening Assay
This screening assay measures human TRPC6 (transient receptor potential cation channel, subfamily C, member 6) ion channel activation via addition either of the commercially available DAG ligand analogue OAG (1-oleoyl-2-acetyl-sn-glycerol) or of the TRPC6 agonist 1-[1-(4,5,6,7,8-pentahydrocyclohepta[2,1-d]thiophen-2-ylcarbonyl)-4-piperidyl]-3-hydrobenzimidazol-2-one (GSK1702934A). The assay utilizes a fluorescent calcium sensor 4-(6-Acetoxymethoxy-2,7-difluoro-3-oxo-9-xanthenyl)-4′-methyl-2,2′-(ethylenedioxy)dianiline-N,N,N′,N′-tetraacetic acid tetrakis(acetoxymethyl) ester (Fluo4/AM) dye from Molecular Devices. Changes (increases) in intracellular calcium concentration as measured by the fluorescent signal increase provide a measurement of channel activity.
The commercially available HEK293/TREx line (Invitrogen) was stably transfected with a human TRPC6 construct and screened by conventional calcium imaging to find clones with human TRPC6 expression following stimulation with 1 μg/ml tetracycline. These cells were maintained in the growth medium recommended by the manufacturer supplemented with 100 μg/ml hygromycin to promote retention of the human TRPC6 construct. After growing to near confluency, cells were plated at a density of ^˜35,000 cells/well in 384 well CellBind plates (Corning) in the presence of 1 μg/ml tetracycline, and allowed to grow for 20-30 hrs. A nearly confluent monolayer resulted. Growth media was removed from the wells and cells were then loaded with […] Fluo4/AM diluted in Ringer's Solution (6.5 g NaCl, 0.42 g KCl, 0.25 g CaCl2) and 0.2 g of sodium bicarbonate; pH 7.4) supplemented with 1% Pluronic F-127 to a final concentration of 0.5 μM and incubated for 60 min, at room temperature. Dye solution was then removed from the cells by inverting plates with a sharp flick, and replaced with 25 μl Ringer's. Following ^˜0.5 hour for recovery from loading, cells were assayed using the Hamamatsu FDSS 6000 system, which permitted illumination at 485 nm. Frames were acquired at a rate of 0.2 Hz. During the assay, the plates were continuously vortexed, with pipette mixing of wells following addition of each reagent. For the screening assay, 26 μl of a diluted compound stock (at 50 μM) was added to each well for 2 minutes following the collection of a short (4 frame) baseline. 13 μl of agonist solution consisting of 125 nM GSK1702934A diluted in high-Ca2+Ringer solution (containing 90 mM Ca2+) was then added to each well, achieving a final concentration of 20 mM Ca2+ and 10 μM test compound. Data was collected for ^˜3 minutes following addition of high Ca2+Ringer. The fluorescent intensity observed at a particular timepoint for each well was divided by the initial fluorescent intensity for that well and the overall response was determined by averaging the resulting fluorescent ratio of the last 4 frames acquired during the experiment excepting the final frame. Negative and Positive controls were included on each plate. Negative controls wells consisted of HEK293/TREx TRPC6 cells exposed to assay buffer and agonist solution, but no test compound. Positive control consisted of wells consisted of HEK293/TREx TRPC6 cells exposed to 25 μM 3-[(2-chlorophenoxy)methyl]phenyl piperidyl ketone (Chembridge) diluted in Ringer's solution and agonist solution. These controls defined zero percent and 100 percent block respectively, and intensity of each well was normalized to these values.
Compounds were tested in triplicate at all concentrations. Standard software was used to fit IC50 curves.

Row | IC50 | SMILES
1 | 1400 nM | CCc1cc(C(=O)N2CCC(c3ccc(N)nn3)CC2)ccc1-c1ccc(C(F)(F)F)cc1 [Compound 70, [4-(6-Amino-pyridazin-3-yl)-piperidin-1-yl]-(2-ethyl-4′-trifluoromethyl-biphenyl-4-yl)-methanone]
2 | 440 nM | COc1cc(C(=O)N2CCN(c3cnc(N)cc3OC)C[C@@H]2[C@@H](C)O)ncc1-c1ccc(C(F)(F)F)cc1 [Compound 106, [(R)-4-(6-Amino-4-methoxy-pyridin-3-yl)-2-((R)-1-hydroxy-ethyl)piperazin-1-yl]-[4-methoxy-5-(4-trifluoromethyl-phenyl)-pyridin-2-yl]-methanone]
3 | 350 nM | COc1cc(C(=O)N2CCC(c3nnc(N)cc3OC)CC2)ncc1-c1ccc(C(F)(F)F)cc1 [Compound 85, [4-(6-Amino-4-methoxy-pyridazin-3-yl)-piperidin-1-yl]-[4-methoxy-5-(4-trifluoromethyl-phenyl)-pyridin-2-yl]-methanone]
4 | 230 nM | COC[C@H]1CN(c2cnc(N)cc2OC)CCN1C(=O)c1cc(OC)c(-c2ccccc2)cn1 [Compound 100, [(R)-4-(6-Amino-4-methoxy-pyridin-3-yl)-2-methoxymethyl-piperazin-1-yl]-(4-methoxy-5-phenyl-pyridin-2-yl)-methanone]
5 | 32 nM | COc1cc(C(=O)N2CCN(c3cnc(N)cc3OC)CC2)ncc1-c1ccccc1 [Compound 105, 4-Methoxy-5-[4-(4-methoxy-5-phenylpyridine-2-carbonyl)piperazin-1-yl]pyridin-2-amine]
6 | 210 nM | COc1cc(C(=O)N2CCN(c3cnc(N)cc3OC)C[C@@H]2[C@H](C)O)ncc1-c1ccc(C(F)(F)F)cc1 [Compound 107]
7 | 660 nM | COc1cc(C(=O)N2CCC(c3nnc(N)cc3OC)CC2)ncc1-c1ccc(C(F)(F)F)nc1 [Compound 86, [4-(6-Amino-4-methoxy-pyridazin-3-yl)-piperidin-1-yl]-(4-methoxy-6′-trifluoromethyl-[3,3′]bipyridinyl-6-yl)-methanone]
8 | 510 nM | COc1cc(C(=O)N2CCC(c3ccc(N)nn3)CC2)ccc1-c1ccc(OC2CC2)nc1 [Compound 73, [4-(6-Amino-pyridazin-3-yl)-piperidin-1-yl]-[4-(6-cyclopropoxy-pyridin-3-yl)-3-methoxy-phenyl]-methanone]
9 | 220 nM | COc1cc(C(=O)N2CCC(c3ccc(N)nn3)CC2)ccc1-c1ccc(O[C@H](C)C2CC2)nc1 [Compound 81, [4-(6-Amino-pyridazin-3-yl)-piperidin-1-yl]-{4-[6-((R)-1-cyclopropyl-ethoxy)-pyridin-3-yl]-3-methoxy-phenyl}-methanone]
10 | 8700 nM | CC(C)Cc1ccc(-c2ccc(C(=O)N3CCC(c4ccc(N)nn4)CC3)cc2)cc1 [Compound 83, [4-(6-Amino-pyridazin-3-yl)-piperidin-1-yl]-(4′-isobutyl-biphenyl-4-yl)-methanone]
11 | 360 nM | Cc1cc(-c2ccc(C(F)(F)F)cc2)ccc1C(=O)N1CCC(c2ccc(N)nn2)CC1 [Compound 69, [4-(6-Amino-pyridazin-3-yl)-piperidin-1-yl]-(3-methyl-4′-trifluoromethyl-biphenyl-4-yl)-methanone]
12 | 27 nM | COc1cc(C(=O)N2CCN(c3cnc(N)cc3C)C[C@@H]2CO)ncc1-c1ccccc1 [Compound 94, [(R)-4-(6-Amino-4-methyl-pyridin-3-yl)-2-hydroxymethyl-piperazin-1-yl]-(4-methoxy-5-phenyl-pyridin-2-yl)-methanone]

The remaining lines, values behind:

Row | SMILES | IC50
13 | COc1cc(C(=O)N2CCC(c3ccc(N)nn3)CC2)ncc1-c1ccc(C(F)(F)F)c(F)c1 [Compound 26, [4-(6-Amino-pyridazin-3-yl)-piperidin-1-yl]-[5-(3-fluoro-4-trifluoromethyl-phenyl)-4-methoxy-pyridin-2-yl]-methanone] | 58 nM
14 | COc1cc(C(=O)N2CCC(c3ccc(N)nn3)CC2)ncc1-c1ccc(Cl)cc1 [Compound 40, [4-(6-Amino-pyridazin-3-yl)-piperidin-1-yl]-[5-(4-chloro-phenyl)-4-methoxy-pyridin-2-yl]-methanone] | 73 nM
15 | CCc1ccc(-c2cnc(C(=O)N3CCC(c4ccc(N)nn4)CC3)cc2OC)cn1 [Compound 44, [4-(6-Amino-pyridazin-3-yl)-piperidin-1-yl]-(6′-ethyl-4-methoxy-[3,3′]bipyridinyl-6-yl)-methanone] | 1700 nM
16 | COc1cc(C(=O)N2CCC(c3ccc(N)nn3)CC2)ccc1-c1ccc(OC(C)C)cc1 [Compound 57, [4-(6-Amino-pyridazin-3-yl)-piperidin-1-yl]-(4′-isopropoxy-2-methoxy-biphenyl-4-yl)-methanone] | 320 nM
17 | COc1cc(C(=O)N2CCC(c3ccc(N)nn3)CC2)ncc1-c1ccc(OC(C)C)c(Cl)c1 [Compound 19] | 610 nM
18 | COc1cc(C(=O)N2CCC(c3ccc(N)nn3)CC2)ncc1-c1ccc(F)c(F)c1 [Compound 33, [4-(6-Amino-pyridazin-3-yl)-piperidin-1-yl]-[5-(3,4-difluoro-phenyl)-4-methoxy-pyridin-2-yl]-methanone] | 62 nM
19 | COc1cc(C(=O)N2CCC(c3ccc(N)nn3)CC2)ncc1-c1ccccc1 [Compound 32, [4-(6-Amino-pyridazin-3-yl)-piperidin-1-yl]-(4-methoxy-5-phenyl-pyridin-2-yl)-methanone] | 110 nM
20 | COc1cc(C(=O)N2CCC(c3ccc(N)nn3)CC2)ncc1-c1ccc2c(c1)OCC2 [Compound 16, [4-(6-Amino-pyridazin-3-yl)-piperidin-1-yl]-[5-(2,3-dihydro-benzofuran-6-yl)-4-methoxy-pyridin-2-yl]-methanone] | 390 nM
21 | COc1cc(C(=O)N2CCC(c3ccc(N)nn3)CC2)ncc1-c1ccc(C(F)(F)F)c(OC)c1 [Compound 25] | 340 nM
22 | COc1cc(-c2ccc(C(F)(F)F)cc2)ccc1C(=O)N1CCC(c2ccc(N)nn2)CC1 [Compound 66, [4-(6-Amino-pyridazin-3-yl)-piperidin-1-yl]-(3-methoxy-4′-trifluoromethyl-biphenyl-4-yl)-methanone] | 520 nM
23 | COc1cc(C(=O)N2CCC(c3ccc(N)nn3)CC2)ncc1-c1cccc(OCC(C)C)c1 [Compound 52, [4-(6-Amino-pyridazin-3-yl)-piperidin-1-yl]-[5-(3-isobutoxy-phenyl)-4-methoxy-pyridin-2-yl]-methanone] | 240 nM
24 | CCOc1ccc(-c2cnc(C(=O)N3CCC(c4ccc(N)nn4)CC3)cc2OC)cn1 [Compound 45, [4-(6-Amino-pyridazin-3-yl)-piperidin-1-yl]-(6′-ethoxy-4-methoxy-[3,3′]bipyridinyl-6-yl)-methanone] | 440 nM
